Measurements reported in patent publication US20090048295A1, “SUBSTITUTED 5,6,7,8-TETRAHYDROQUINOLINE DERIVATIVES, COMPOSITIONS, AND METHODS OF USE THEREOF” (priority 2007, published 2009).
pIC50, pKi: −log10 of the molar value.

How the values were obtained:
[1] = target: T1, C5a receptor (Homo sapiens, UniProt P21730); test: Calcium Mobilization Assay (C5a-induced Ca2+ mobilization, FLIPR, differentiated U937 cells); assay type: cell-based; set-up: endogenous in cells; host or cells: U937 cells differentiated with dibutyryl cAMP; conditions: […] recombinant human C5a, 20 min pre-incubation, multiple values = duplicate experiments, read-out: C5a Induced Ca Mobil. Average IC50
T1 sequence (P21730 1-350): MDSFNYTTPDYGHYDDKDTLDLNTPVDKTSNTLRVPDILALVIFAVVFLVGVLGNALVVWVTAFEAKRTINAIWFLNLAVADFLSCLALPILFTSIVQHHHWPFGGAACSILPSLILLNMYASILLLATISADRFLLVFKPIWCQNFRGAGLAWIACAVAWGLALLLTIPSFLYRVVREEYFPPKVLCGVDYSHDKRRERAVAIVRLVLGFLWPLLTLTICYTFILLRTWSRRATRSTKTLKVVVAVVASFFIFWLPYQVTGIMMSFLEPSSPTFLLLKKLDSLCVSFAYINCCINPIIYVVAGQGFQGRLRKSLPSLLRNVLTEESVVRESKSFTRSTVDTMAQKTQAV
In short: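 Ca2+ responses to 1.5 nM human C5a were read by FLIPR as peak Fluo-3 fluorescence over 2 min in U937 monocytic cells. Cells were differentiated with 1 mM dibutyryl cAMP for 2–3 days and exposed to compound for 20 min at room temperature in 1% DMSO before agonist.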

[2] = target: T1, C5a receptor; test: biochemical
[3] = target: T1, C5a receptor; test: [125I]-C5a Radioligand Binding Assay (competition binding, differentiated U937 cells); conditions: [125I]-C5a 0.05 nM, U937 cells, multiple values = duplicate experiments; for inhibition at 1 µM: read-out: [125I]-C5a Binding % Inhibition 1 μM, test compound 1 μM; for inhibition at 10 µM: read-out: [125I]-C5a Binding % Inhibition 10 μM, test compound 10 μM; for [125I]-C5a Binding % Inhibition 1 μM: test compound 1 μM; for [125I]-C5a Binding % Inhibition 10 μM: test compound 10 μM;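 on all read-outs here: cells preincubated with compound 30 min at room temperature, then 60 min at 4 °C with radioligand, bound counts read by scintillation, nonspecific binding defined with 100 nM C5a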

Row | pIC50 [1] | pKi [2] | inhibition at 1 µM [3] | inhibition at 10 µM [3] | [125I]-C5a Binding % Inhibition 1 μM [3] | [125I]-C5a Binding % Inhibition 10 μM [3] | Compound
1 | 6.79 | 6.97 | 81% | 86% | 82% | 98% | CCc1cccc(CC)c1-c1cc(OC)c2c([n+]1[O-])CCCC2N(CC)c1cccc2ccccc12 (racemic) [Compound 19, (±)-[2-(2,6-Diethyl-phenyl)-4-methoxy-1-oxy-5,6,7,8-tetrahydro-quinolin-5-yl]-ethyl-naphthlen-1-yl-amine]
2 | < 5.00 | 6.39 | 87% | 86% | 71% | 84% | CCc1cccc(CC)c1-c1cc(OC)c2c(n1)CCCC2N(C)Cc1cccc2ccccc12 (stereo not drawn) [Compound 90]
